From patent US9284283B2, “Macrocyclic compounds for modulating IL-17” (ENSEMBLE THERAPEUTICS CORPORATION, priority 2012, dated 2016)

Legend:
[1] = molecular target: T1, recombinant human IL17a (binding to its receptor IL17R) (Homo sapiens, UniProt Q16552); test: IL-17 competition ELISA I (IL17a coated, IL17R/Fc binding)
T1 construct: purchased R&D Systems 317-ILB (IL17a); 177-IR (IL17R/Fc)
T1 sequence (Q16552 20-155 limits assumed): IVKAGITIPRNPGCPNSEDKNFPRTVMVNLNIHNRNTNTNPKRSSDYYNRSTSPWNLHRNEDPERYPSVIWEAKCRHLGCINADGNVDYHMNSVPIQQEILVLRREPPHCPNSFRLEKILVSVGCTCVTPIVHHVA
Summary of the method: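 Plates coated with 20 nM recombinant human IL17a received compound dilutions and 12 nM IL17R/Fc (final) for 30 min at room temperature. Bound receptor was detected with HRP anti-human Fc and TMB, read at 450 nm. IC50 came from a 4-parameter logistic fit between no-competitor and blank controls.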

IL17A = molecular target: T2, IL17A (Homo sapiens, UniProt Q16552); test: Surface Plasmon Resonance (SPR) analysis of compound interactions with IL17A; settings: SPR binding to IL17A
T2 sequence (Q16552 24-155): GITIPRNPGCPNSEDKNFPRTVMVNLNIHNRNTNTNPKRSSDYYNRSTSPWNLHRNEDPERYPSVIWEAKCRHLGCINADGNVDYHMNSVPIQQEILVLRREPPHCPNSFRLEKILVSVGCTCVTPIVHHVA
Protocol: SPR analysis was carried out with a GE Healthcare (Piscataway, N.J.) Biacore X100 system. Typically, the chip (NTA Biacore Biosensor chip; GE Healthcare BR-1000-34) was first conditioned by injection of 0.35 M EDTA, which also served to remove any immobilized proteins from previous runs. Before immobilization of the recombinant 6-His-tagged IL17, the chip was washed with 0.5 mM nickel chloride in NTA buffer (10 mM HEPES buffer, 0.15 M sodium chloride, 10 μM ethylene diamine tetraacetic acid, 0.005% v/v surfactant P20 (GE Healthcare BR-1000-54)) to form a nickel chelate on the chip. IL17 protein was immobilized onto a NTA chip through its 6-His tag. IL17A was typically injected at 0.25 μM for 60-120 seconds, followed by a stabilization step washing with NTA+0.5% DMSO for 120 seconds or longer.
Five 2-fold or 3-fold serial dilutions of test compound were injected serially onto the chip. All steps were conducted using NTA buffer containing 0.5% v/v dimethylsulfoxide (DMSO). Compounds were diluted from stock solutions of 10 mM concentration in 100% DMSO with NTA buffer to obtain 50 μM solutions in NTA+0.5% DMSO. Subsequent 2× or 3× dilutions were made in NTA+0.5% DMSO. Compound was generally injected for 180 seconds followed by washing the chip in buffer alone for 120 seconds. The rate of refractive index change (RU units/time) and the maximum extend of RU change was measured during the “on” phase of analyte injection, followed by measuring the rate during the “off” phase.
Kinetic parameter fits were conducted using the Biacore SPR Evaluation Program (GE Healthcare) for 1:1 molecular binding fits, after subtracting the baseline average of 2 or more runs in which no analyte was injected. This program then reports the best fit average for the “on” rate (Ka), the “off” rate (Kd) and the dissociation constant (KD) (Chaiken, I et al., Anal Biochem 201, 197-210 (1992)). A separate program in the Biacore SPR Evaluation Program then calculates the best fit for Kd based upon the extent of binding alone (RU units bound) at each concentration of analyte and reports the best fit Kd by best fit to a Lineweaver-Burke plot. Typically, the Kd value calculated through both means agreed within a factor of three.
The presence and activity of IL17 on the NTA chip was routinely confirmed three ways: • 1) An increase in response units (RU) upon immobilization confirms that the IL17 was immobilized on the chip; • 2) Anti-IL17 was also injected on the chip to confirm the presence of IL17; and • 3) IL17R was injected onto the chip to confirm that the immobilized IL17 retained its binding activity for its receptor. Negative controls to access specificity for compound binding were conducted by immobilizing unrelated, but his-tagged, proteins (such as cyclophilin D) and conducting the same analysis as done with IL17A.

[2] = molecular target: T3, biotinylated human IL-17 (binding to IL17R/Fc) (Homo sapiens, UniProt Q16552); test: IL-17 competition ELISA II (captured IL17R/Fc, biotinylated IL-17)
T3 construct: purchased R&D Systems 317-ILB (IL-17, biotinylated); 177-IR (IL17R/Fc)
T3 sequence (Q16552 20-155 limits assumed): T1 sequence (Q16552 20-155 limits assumed)
Summary of the method: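 Competition read-out: absorbance at 450 nm after streptavidin-HRP/TMB detection, fitted to a 4-parameter logistic model bounded by no-competitor and blank wells to give IC50. Compound was serially diluted 5-fold from 1 μM alongside 20 nM (stock) biotinylated IL-17 on IL17R/Fc (10 nM) captured via goat anti-human IgG, 30 min at room temperature.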

Structure (SMILES) | IC50 [1] | Kd (IL17A) | IC50 [2]
O=C1CCCNC(=O)[C@@H](Cc2ccc(NC(=O)[C@H](Cc3ccccc3Cl)NC(=O)Cc3ccccc3)cc2)NC(=O)CC2(CCCC2)CC(=O)NCCCN1 [Compound 158] | < 100 nM | < 100 nM | 
O=C1CCNC(=O)[C@@H](Cc2ccc(NC(=O)[C@H](Cc3ccccc3Cl)NC(=O)Cc3ccccc3)cc2)NC(=O)CC2(CCCC2)CC(=O)NCCCCN1 [Compound 164] | < 100 nM | < 100 nM | 
O=C1CC2(CCCC2)CC(=O)N[C@H](Cc2ccc(NC(=O)[C@H](Cc3ccccc3F)NC(=O)Cc3ccccc3)cc2)C(=O)NCCCC[C@@H](C(=O)O)N1 [Compound 179] |  | 100 to 1000 nM | < 100 nM
O=C1CNC(=O)[C@@H](Cc2ccc(NC(=O)[C@H](Cc3ccc(O)cc3)NC(=O)Cc3ccccc3)cc2)NC(=O)CC2(CCCC2)CC(=O)NCCCCCN1 [Compound 183] | 1000 to 10000 nM | 100 to 1000 nM | 
CN1CC(=O)NCCCCCNC(=O)CC2(CCCC2)CC(=O)N[C@H](Cc2ccc(NC(=O)[C@H](Cc3ccccc3Cl)NC(=O)Cc3ccccc3)cc2)C1=O [Compound 188] | 1000 to 10000 nM | 100 to 1000 nM | 
O=C1CNC(=O)[C@@H](Cc2ccc(NC(=O)[C@H](Cc3c(F)cccc3F)NC(=O)Cc3ccc(O)cc3)cc2)NC(=O)CC2(CCCC2)CC(=O)NCCCCCN1 [Compound 190] |  | 100 to 1000 nM | 
CN1CC(=O)NCCCCCNC(=O)CC2(CCCC2)CC(=O)N[C@H](Cc2ccc(NC(=O)[C@H](Cc3ccccc3Cl)NC(=O)Cc3ccc(O)cc3)cc2)C1=O [Compound 193] | 100 to 1000 nM | < 100 nM | 
O=C1CNC(=O)[C@@H](Cc2ccc(NC(=O)[C@H](Cc3ccccc3Cl)NC(=O)c3cnccn3)cc2)NC(=O)CC2(CCCC2)CC(=O)NCCCCCN1 [Compound 200] | 100 to 1000 nM | 100 to 1000 nM | 
O=C1CNC(=O)[C@@H](Cc2ccc(NC(=O)[C@H](Cc3ccccc3Cl)NC(=O)Cc3ccncc3)cc2)NC(=O)CC2(CCCC2)CC(=O)NCCCCCN1 [Compound 202] | < 100 nM | < 100 nM | 
O=C1CNC(=O)[C@@H](Cc2ccc(NC(=O)[C@H](Cc3ccccc3Cl)NC(=O)c3ccccc3F)cc2)NC(=O)CC2(CCCC2)CC(=O)NCCCCCN1 [Compound 203] | < 100 nM | < 100 nM | 
O=C1CNC(=O)[C@@H](Cc2ccc(NC(=O)[C@H](Cc3ccccc3Cl)NC(=O)c3ccccc3Cl)cc2)NC(=O)CC2(CCCC2)CC(=O)NCCCCCN1 [Compound 204] | 100 to 1000 nM | < 100 nM | 
O=C1CNC(=O)[C@@H](Cc2ccc(NC(=O)[C@H](Cc3ccccc3Cl)NC(=O)c3ccc(Cl)cc3)cc2)NC(=O)CC2(CCCC2)CC(=O)NCCCCCN1 [Compound 205] | < 100 nM | < 100 nM | 
O=C1CNC(=O)[C@@H](Cc2ccc(NC(=O)[C@H](Cc3ccccc3Cl)NC(=O)C3CCCCC3)cc2)NC(=O)CC2(CCCC2)CC(=O)NCCCCCN1 [Compound 207] | 100 to 1000 nM | < 100 nM | 
O=C1CNC(=O)[C@@H](Cc2ccc(NC(=O)[C@H](Cc3ccccc3Cl)NC(=O)c3ccncc3)cc2)NC(=O)CC2(CCCC2)CC(=O)NCCCCCN1 [Compound 208] |  | < 100 nM | 
O=C1CNC(=O)[C@@H](Cc2ccc(NC(=O)[C@H](Cc3ccc(Cl)cc3Cl)NC(=O)Cc3ccccc3)cc2)NC(=O)CC2(CCCC2)CC(=O)NCCOCCN1 [Compound 210] |  | < 100 nM | 
O=C1CNC(=O)[C@@H](Cc2ccc(NC(=O)[C@H](Cc3cccc(Cl)c3)NC(=O)Cc3ccccc3)cc2)NC(=O)CC2(CCCC2)CC(=O)OCCCCCN1 [Compound 212] | 100 to 1000 nM | 100 to 1000 nM | 
O=C1CNC(=O)[C@@H](Cc2ccc(NC(=O)[C@H](Cc3ccc(Cl)cc3)NC(=O)Cc3ccccc3)cc2)NC(=O)CC2(CCCC2)CC(=O)OCCCCCN1 [Compound 213] | > 10000 nM | 100 to 1000 nM | 
O=C1CNC(=O)[C@@H](Cc2ccc(NC(=O)[C@H](Cc3ccccc3Cl)NC(=O)c3cccc(O)c3)cc2)NC(=O)CC2(CCCC2)CC(=O)NCCCCCN1 [Compound 214] | < 100 nM | < 100 nM | 

The remaining lines, values ahead:

IC50 [1] | Kd (IL17A) | IC50 [2] | Structure (SMILES)
 | < 100 nM |  | O=C1CNC(=O)[C@@H](Cc2ccc(NC(=O)[C@H](Cc3ccccc3Cl)NC(=O)c3ccc(O)cc3)cc2)NC(=O)CC2(CCCC2)CC(=O)NCCCCCN1 [Compound 215]
1000 to 10000 nM | 100 to 1000 nM |  | O=C1CCCC(=O)N[C@H](Cc2ccc(NC(=O)[C@H](Cc3ccccc3Cl)NC(=O)Cc3ccccc3)cc2)C(=O)NCC(=O)NCCCCCN1 [Compound 221]
< 100 nM | < 100 nM |  | CC1(C)CC(=O)NCCCCCNC(=O)CNC(=O)[C@@H](Cc2ccc(NC(=O)[C@H](Cc3ccccc3Cl)NC(=O)Cc3ccccc3)cc2)NC(=O)C1 [Compound 222]
< 100 nM | < 100 nM |  | O=C1CNC(=O)[C@@H](Cc2ccc(NC(=O)[C@H](Cc3ccccc3Cl)NC(=O)Cc3ccccc3)cc2)NC(=O)CC2(CCCCC2)CC(=O)NCCCCCN1 [Compound 223]
1000 to 10000 nM | 100 to 1000 nM |  | O=C1CNC(=O)[C@@H](Cc2ccc(NC(=O)[C@H](Cc3ccc(Cl)c(Cl)c3)NC(=O)Cc3ccccc3)cc2)NC(=O)CC2(CCCC2)CC(=O)OCCCCCN1 [Compound 224]
1000 to 10000 nM | 100 to 1000 nM |  | O=C1CNC(=O)[C@@H](Cc2ccc(NC(=O)[C@H](Cc3ccc(Br)s3)NC(=O)Cc3ccccc3)cc2)NC(=O)CC2(CCCC2)CC(=O)OCCCCCN1 [Compound 225]
< 100 nM | < 100 nM |  | O=C1CNC(=O)[C@@H](Cc2ccc(NC(=O)[C@H](Cc3cccs3)NC(=O)Cc3ccccc3)cc2)NC(=O)CC2(CCCC2)CC(=O)NCCCCCN1 [Compound 228]
< 100 nM | < 100 nM |  | O=C1CNC(=O)[C@@H](Cc2ccc(NC(=O)[C@H](Cc3ccco3)NC(=O)Cc3ccccc3)cc2)NC(=O)CC2(CCCC2)CC(=O)NCCCCCN1 [Compound 230]
 | 100 to 1000 nM | 100 to 1000 nM | CC(C)(C)[C@H](NC(=O)Cc1ccccc1)C(=O)Nc1ccc(C[C@H]2NC(=O)CC3(CCCC3)CC(=O)NCCCCCNC(=O)CNC2=O)cc1 [Compound 231]
1000 to 10000 nM | 100 to 1000 nM |  | O=C1CNC(=O)[C@@H](Cc2ccc(NC(=O)[C@H](Cc3cscn3)NC(=O)Cc3ccccc3)cc2)NC(=O)CC2(CCCC2)CC(=O)NCCCCCN1 [Compound 232]
100 to 1000 nM | < 100 nM |  | O=C1CNC(=O)[C@@H](Cc2ccc(NC(=O)[C@H](Cc3csc4ccccc34)NC(=O)Cc3ccccc3)cc2)NC(=O)CC2(CCCC2)CC(=O)NCCCCCN1 [Compound 233]
